Bounds are passed on as bounds.

In this experiment the target is Transforming acidic coiled-coil-containing protein 3 (Homo sapiens) (UniProt Q9Y6A5). Put plainly: inhibition of ARNT PAS-B/TACC3 complex formation – biochemical, AlphaScreen, cherry-picked samples, confirmation (AID 651703).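 Also: TACC3 partner is the GST-tagged E629A mutant dimer; hits lower the signal meaning they disrupt ARNT binding to TACC3.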 Particulars: AlphaScreen His-ARNT PAS-B / GST-TACC3 binding, luminescence.
As to `COc1cccc(/C=N/Nc2ccnc(=O)[nH]2)c1O`, the AC50 (commonly the midpoint of the concentration-response curve, whichever way the signal moves) is 9.05 µM. Next, `COCc1cc(CN2CCN(C)CC2)c(O)c2ncccc12`: 1.14 µM; `O=C(Oc1cccc2cccnc12)c1ccco1`: 9.83 µM; `Cc1ccnc2nc(C(=O)Nc3nc(-c4ccccn4)cs3)nn12`: 2.53 µM. Next, `Cc1nc2ccccc2c(=O)n1/N=C/c1ccc(O)c(O)c1O`: 25.9 µM. To `Cc1cccc(NC(=O)CSc2ccc(-c3ccccn3)nn2)c1C` belongs 2.86 µM; to `COc1ccc(C2C(C#N)=C(N)Oc3c2ccc2cccnc32)cc1OC` (stereo not drawn), 58.6 µM. In the case of `N#CC1=C(N)Oc2c(ccc3cccnc23)C1c1ccncc1` (stereo not drawn), the AC50 is 26.9 µM. Next, `Cc1cc([N+](=O)[O-])cc(/C=N\NC(=O)C2COc3ccccc3O2)c1O` (stereo not drawn): 36.3 µM. Take `COc1ccc(C)cc1NC(=O)CSc1ccc(-c2ccccn2)nn1`: the AC50 is 3.11 µM. Next, `CC(C)(C)c1ccc(OCCNC(=O)c2ncn[nH]2)cc1`: 15.8 µM.

Turning to `CC(Oc1ccccc1)C(=O)Nc1nc(-c2ccccn2)cs1` (stereo not drawn), the AC50 was 13.2 µM. To `O=C(Nc1nnc(-c2ccccc2Cl)o1)c1cccnc1` belongs 15.8 µM; to `O=[N+]([O-])c1cc(Cl)cc(/C=N\Nc2ccccn2)c1O`, 5.13 µM; to `CCOc1ccc2c(c1)c(N=NC(=N)N)c(O)n2C`, 53.9 µM. To `O=S(=O)(N[C@H]1CC[C@@H](CCn2cc(-c3ccccn3)nn2)O[C@H]1CO)c1cccc(F)c1` belongs 19.1 µM; to `C[C@@H]1CN([C@H](C)CO)S(=O)(=O)c2ccc(C3=CCCC3)cc2O[C@H]1CN(C)Cc1ccccn1`, 70 µM; to `Cc1cccc(CNc2nc(-c3ccccn3)nnc2-c2ccccc2)c1`, below 0.5 µM.

For `O=C(N[C@H]1CC[C@@H](CCn2cc(-c3ccccn3)nn2)O[C@H]1CO)c1ccccc1`, the concentration at half-maximal activity (AC50) is 12.1 µM. On to `Cc1ccn2c(Nc3ccccc3C)c(-c3ccccn3)nc2c1`, for which the AC50 is 3.69 µM. As to `Cc1ccccc1Nc1nc(N)nc(CN(C)Cc2ccccc2Cl)n1`, the AC50 is 53.5 µM.

Take `Cc1ccsc1C(=O)OCC(=O)Nc1nnc(-c2ccccc2)o1`: the AC50 is 14.4 µM. To `C[C@H](NC(=O)c1ccco1)C(=O)Nc1nc(-c2ccccn2)cs1` belongs 8.23 µM; to `COc1ccc(C2=Nn3c(nnc3-c3ccccn3)SC2)cc1`, 11.2 µM; to `Cc1cccc(Nc2nc(-c3ccccn3)cs2)n1`, 6.95 µM.

Turning to `CCC(=O)NC(c1ccc(C)cc1)c1cc([N+](=O)[O-])c2cccnc2c1O` (stereo not drawn), the AC50 was 3.54 µM. To `c1ccc(CNCCN2CCNCC2)nc1` belongs 6.79 µM.

As for `CCOC(=O)C(NCc1ccccn1)(NC(=O)c1cccnc1)C(F)(F)F` (stereo not drawn), the AC50 is 29.8 µM.

For `C[C@H]1c2cccc(O)c2C(O)=C2C(=O)[C@]3(O)C(O)=C(C(N)=O)C(=O)[C@@H](N(C)C)C3[C@@H](O)C21` (stereo partly drawn), the AC50 was 33.5 µM. To `O=C(CSc1n[nH]c(-c2ccccn2)n1)Nc1ccc(Cl)cc1` belongs 2.08 µM; to `c1ccc(CCNc2nc(-c3ccccn3)nc3ccccc23)cc1`, 20.1 µM.

As to `O=C(CC(=O)N/N=C/c1ccccc1O)NCc1cccnc1`, the AC50 was 32.8 µM. Next, `O=C(NCCCn1ccnc1)C(=O)NCC(c1ccco1)N1CCN(c2ccccc2)CC1` (stereo not drawn): 6.85 µM; `O=S(=O)(N[C@H]1CC[C@H](CCn2cc(-c3ccccn3)nn2)O[C@H]1CO)c1cccc(Cl)c1`: 26.6 µM. To `COc1ccc(Cc2nnc(NN)[nH]c2=O)cc1OC` belongs 6.72 µM; to `CC(=O)NC(c1ccco1)c1cc(F)c2cccnc2c1O` (stereo not drawn), 5.76 µM; to `O=C(Nc1nnc(C2=COCCO2)o1)c1ccc([N+](=O)[O-])cc1`, 34.3 µM. Next, `O=C(CSc1ccc2nnc(-c3ccccn3)n2n1)NCC1CCCO1` (stereo not drawn): 49.7 µM; `COc1cccc(C(=O)Oc2c(CN3CCOCC3)cc(Cl)c3cccnc23)c1`: 10.9 µM; `CCC(=O)NC(c1cc(Cl)c2cccnc2c1O)C(C)C` (stereo not drawn): 5.58 µM. For the molecule `Cc1ccc(NC(=O)CSc2n[nH]c(-c3ccccn3)n2)cc1`, the AC50 was 2.26 µM. `O=C(Nc1nnc(SCc2ccc(F)cc2)s1)c1ccccn1`: the AC50 was 7.06 µM.

For `Cc1ccc(Nc2nc(-c3ccccn3)nnc2-c2ccccc2)cn1`, the AC50 is below 0.5 µM. Turning to `O=S(=O)(N[C@@H]1CC[C@H](CCn2cc(-c3ccccn3)nn2)O[C@H]1CO)c1cccc(Cl)c1`, the AC50 was 22 µM. Turning to `CCCCCc1cc(=O)oc2c(C(CCN3CCCC3)c3ccc(N(C)C)cc3)c(OC)cc(OC)c12` (stereo not drawn), the AC50 is 6.86 µM. For `N#CC1=C(N)Oc2c(ccc3cccnc23)C1c1cccnc1` (stereo not drawn), the concentration at half-maximal activity (AC50) was 7.36 µM. To `NS(=O)(=O)c1ccc(N=Nc2c[nH]c(=O)c(O)c2)cc1` belongs 57.9 µM; to `CC(Oc1cccc(Cl)c1)C(=O)Nc1nc(-c2ccccn2)cs1` (stereo not drawn), 18 µM.

On to `CC(=O)[C@H]1[C@@H]2C(=O)N(c3cccc(Cl)c3)C(=O)[C@@H]2[C@H]2c3ccccc3C=CN21`, for which the concentration at half-maximal activity (AC50) is 6.22 µM. To `CCSc1nnc(NC(=O)c2ccccn2)s1` belongs 3.61 µM. With `Cc1ccsc1C(=O)Nc1nnc(-c2ccco2)o1`, the AC50 was 9.04 µM.

`CC(=O)Nc1cccc(C(=O)OCC(=O)Nc2nnc(-c3ccccc3)o2)c1`: the AC50 was 16.3 µM. On to `CN1CCN(C(=O)c2cccc(-c3cc(O)c4ncccc4c3)c2)CC1`, for which the concentration at half-maximal activity (AC50) was 2.72 µM. Next, `OCC1CCN(c2nc(-c3ccccn3)nnc2-c2ccccc2)CC1`: 1.03 µM; `CC(=O)OC[C@H]1O[C@@H](Sc2cccc3cccnc23)[C@H](OC(C)=O)[C@@H](OC(C)=O)[C@H]1OC(C)=O`: 11.5 µM. Next, `O=S(=O)(N[C@H]1CC[C@@H](CCn2cc(-c3ccccn3)nn2)O[C@@H]1CO)c1cccc(Cl)c1`: 16.9 µM; `O=C(COC(=O)c1ccc(O)cc1O)Nc1nnc(-c2ccccc2)o1`: 13.7 µM; `CCC1CCCCN1S(=O)(=O)c1ccc(NC(=O)CSc2ncccc2C(=O)O)cc1` (stereo not drawn): 15.4 µM. In the case of `Oc1ccc(Cl)cc1CNc1cccc2cccnc12`, the AC50 is 54.8 µM.

Consider `O=C(O)CSc1c(O)c2ccccc2[nH]c1=O`, for which the AC50 is 34.5 µM. To `O=C(CN1CC(=O)Oc2ccccc21)NCc1ccco1` belongs 2.05 µM; to `CCCCn1c(NC(=O)c2ccco2)c(C(=O)OCC)c2nc3ccccc3nc21`, 21.9 µM.

With `O=C(CSc1cccc2cccnc12)OCC(=O)c1ccccc1`, the AC50 was 37.3 µM. To `c1ccc(-c2nnc(-c3ccccn3)nc2NCc2cccnc2)cc1` belongs below 0.5 µM.

For `COc1ccc(NC(=O)Nc2ccc3c(c2)CC(=O)N([C@@H](C)CO)C[C@@H](C)[C@H](CN(C)Cc2ccc(Oc4ccccc4)cc2)O3)cc1`, the AC50 was 23.2 µM. Consider `COC(=O)c1ccc(NC(=O)CSc2ccc(-c3ccccn3)nn2)cc1`, for which the half-maximal activity concentration (AC50) is 2.57 µM.

As to `Cc1c(Cl)cccc1-c1ccc(CNCc2ccccn2)o1`, the AC50 is 35.2 µM. `c1ccc(-c2nnc(-c3ccccn3)nc2N2CCC(c3ccccc3)C2)cc1` (stereo not drawn): the AC50 is 4.75 µM. For `COCc1cc(=O)[nH]c(Nc2nc3ccc(C)cc3o2)n1`, the AC50 was 7.59 µM. Next, `CN1CCC(=O)N(CCOc2ccccc2)CC1`: 4.44 µM; `COc1ccc([Si](C)(C)[C@@H]2[C@@H](CCO)O[C@]3(C(=O)N4c5c(cc(OC)cc53)C(C)=CC4(C)C)[C@H]2C)cc1`: 11.3 µM.

Turning to `C[C@H]1CN([C@@H](C)CO)C(=O)c2cccc(NC(=O)Nc3cccc4ccccc34)c2O[C@@H]1CN(C)S(=O)(=O)c1ccc(Cl)cc1`, the AC50 is 51.9 µM. To `O=C(CSC1=NNC(c2ccccn2)S1)Nc1ccccc1` (stereo not drawn) belongs 0.823 µM; to `O=C(NCCCn1ccnc1)c1ccc2nccnc2c1`, 67.5 µM; to `Cc1cccc(C(=O)Nc2nnc(-c3ccncc3)o2)c1`, 36.5 µM. To `CCc1ccc(NC(=O)CSc2ccc(-c3ccccn3)nn2)cc1` belongs 4.37 µM; to `O=C(CNCc1ccccn1)Nc1cc(C(F)(F)F)ccc1N1CCOCC1`, 17.4 µM; to `CCOc1cccc(/C=N/NC(=O)c2cc(-c3cccn3C)n[nH]2)c1O`, 17.1 µM. As for `O=C(NNc1ccccn1)C(=O)NNS(=O)(=O)c1ccc(F)cc1`, the AC50 was 15.5 µM. Regarding `CCN(C(=O)Cc1nc(N)n[nH]1)C1(C(=O)Nc2ccccc2)CCCCC1`, the AC50 was 20 µM. For `CCN(CC)c1ccc(/C=N/NC(=O)c2ccc3nc[nH]c3c2)c(O)c1`, the AC50 was 12.5 µM.

Take `Cc1cccc(S(=O)(=O)N[C@H]2CC[C@@H](CCn3cc(-c4ccccn4)nn3)O[C@@H]2CO)c1`: the AC50 is 24.3 µM.

`Cc1[nH]n(-c2ccccc2)c(=O)c1/C=N\NC(=O)C1COc2ccccc2O1` (stereo not drawn): the AC50 was 17.4 µM.

As to `CCCC(=O)NC(c1ccco1)c1cc([N+](=O)[O-])c2cccnc2c1O` (stereo not drawn), the half-maximal activity concentration (AC50) is 8.21 µM.

In the case of `Cc1[nH]n(-c2ccccc2)c(=O)c1/C=N/NC(=O)COc1ccccc1[N+](=O)[O-]`, the AC50 is 15.8 µM. To `CC(C)Nc1nc(NC(C)C)nc(C(=O)OCCO)n1` belongs 41.8 µM; to `O=C(N/N=C(\c1ccccc1)c1cccnc1)c1cccc(F)c1`, 21.7 µM. To `Cc1cccc(C)c1Nc1c(-c2ccccn2)nc2ccccn12` belongs 8.6 µM; to `Oc1c(Cl)cc(CN2CCOCC2)c2cccnc12`, 1.15 µM; to `CC1CCCN(S(=O)(=O)c2ccc(C(=O)Nc3nnc(C4CC4)o3)cc2)C1` (stereo not drawn), 31.9 µM.

In the case of `Nc1nc(-c2ccccn2)nc(N)c1Cc1ccc(Cl)cc1Cl`, the AC50 was 2.6 µM. Next, `O=C(CSc1ccc2nnc(-c3ccccn3)n2n1)Nc1ccc(F)cc1F`: 35.4 µM; `COc1cccc(/C=N/NC(=O)CNC(=O)c2ccncc2)c1O`: 64.8 µM.

For `O=S(=O)(Nc1cccc2cccnc12)c1ccc(S(=O)(=O)N2CCCC2)cc1`, the AC50 was 23.3 µM. Regarding `Cc1nnc(NC(=O)c2ccc(S(=O)(=O)N3CCCCC3C)cc2)o1` (stereo not drawn), the half-maximal activity concentration (AC50) was 52 µM. To `CC(=O)Nc1ccc(Oc2nc(-c3ccccn3)nc3ccccc23)cc1` belongs 7.02 µM. Next, `O=C(O)c1cc2c(cn1)[nH]c1ccccc12`: 1.8 µM.

For the molecule `c1ccc(CNc2nc(-c3ccccn3)nnc2-c2ccccc2)cc1`, the concentration at half-maximal activity (AC50) is below 0.5 µM.

(Values after PubChem BioAssay AID651703 (Broad Institute, 2012).)
